Test results as given in US4327097A, “Novel penicillins” (Toyama Chemical Co., Ltd., priority 1974, dated 1982).
In brackets after ≈: the same amount, converted by molar mass.

How the values were obtained:
Escherichia coli = experiment: MIC against clinical isolates; format: cell-based; conditions: Table 5-2, clinical isolate; unit assumed
Pseudomonas aeruginosa = experiment: MIC against clinical isolates; format: cell-based; conditions: unit assumed
Proteus vulgaris = experiment: MIC against clinical isolates; format: cell-based; conditions: Table 5-6, clinical isolate; unit assumed
Salmonella typhi-murium = experiment: MIC against clinical isolates; format: cell-based; conditions: Table 5-5, clinical isolate; unit assumed
Proteus morganii = experiment: MIC against clinical isolates; format: cell-based; conditions: Table 5-6, clinical isolate; unit assumed
Klebsiella pneumoniae [1] = experiment: MIC, plate method, standard strains; format: cell-based; conditions: Table 3, standard strain; unit assumed
Procedure, shortened: (§1)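 Minimum inhibitory concentrations are determined by agar plate dilution using Heart infusion agar (pH 7.4). Each plate receives an inoculum of 10^4 cells.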

Proteus vulgaris 3027 = experiment: MIC, plate method, standard strains; format: cell-based; conditions: Table 3, standard strain; unit assumed
Procedure, shortened: as §1

[2] = system: Staphylococcus aureus 209p; experiment: MIC, plate method, standard strains; format: cell-based; conditions: Table 3, standard strain, Heart infusion agar pH 7.4; unit assumed
Procedure, shortened: as §1

Escherichia coli NIHJ = experiment: MIC, plate method, standard strains; format: cell-based; conditions: Table 3, standard strain; unit assumed
Procedure, shortened: as §1

[3] = system: β-lactamase, Pseudomonas aeruginosa GN 238; experiment: Resistant activity against β-lactamase, iodometric assay; format: biochemical; conditions: β-lactamase from Pseudomonas aeruginosa GN 238; Potassium Penicillin G = 100
Experimental: (3) Resistant activity against β-lactamase, Pseudomonas aerugionsa GN 238:
The resistant activity of each compound against β-lactamase was measured in the manner described below.
β-Lactamase was prepared from Pseudomonas aeruginosa GN 238. This microorganism was cultured in 100 ml of a medium containing 2 g of yeast extract, 10 g of polypeptone, 2 g of glucose, 7 g of disodium hydrogen phosphate, 2 g of potassium dihydrogen phosphate, 1.2 g of ammonium sulfate and 0.4 g of magnesium sulfate, per liter, in a 500-ml Erlenmeyer flask for 6 hrs. at 37° C. with shaking. The resulting cells were collected by centrifugation (5,000 r.p.m.×10 min.), washed three times with 0.1 M phosphate buffer (pH 7.0). Subsequently, the cells were subjected to sonication (20 KHz, 20 min.) and then centrifuged at 15,000 r.p.m. for 60 min. By using the supernatant of enzyme fluid, the resistance of each compound against β-lactamase was determined by the iodometric assay method. Each numeral shown in Table 7 is a relative activity value calculated by assuming as 100 the activity of the control Potassium Penicillin G.

Shigella sonnei = experiment: MIC against clinical isolates; format: cell-based; conditions: Table 5-5, clinical isolate; unit assumed
Experimental: (§2) The minimum inhibitory concentration (MIC) was determined by the plate method disclosed in "Chemotherapy" (Japan), Vol. 16, (1968), pages 98-99. The culture medium used was a Heart infusion agar (pH 7.4). The number of the cells per plate used in the inoculum was 10^4 (10^6 cells/ml).
(§3) MIC was determined in the same manner as in the preceding paragraph (1).

Shigella flexneri = experiment: MIC against clinical isolates; format: cell-based; conditions: Table 5-5, clinical isolate; unit assumed
Experimental: as §2, §3

Proteus mirabilis = experiment: MIC against clinical isolates; format: cell-based; conditions: Table 5-6, clinical isolate; unit assumed
Staphylococcus aureus = experiment: MIC against clinical isolates; format: cell-based; conditions: Table 5-1, clinical isolate; unit assumed
Klebsiella pneumoniae [4] = experiment: MIC against clinical isolates; format: cell-based; conditions: Table 5-4, clinical isolate; unit assumed

SMILES	MIC Escherichia coli GN 3452 (Escherichia coli)	MIC Escherichia coli GN 3481 (Escherichia coli)	MIC Escherichia coli GN 3611 (Escherichia coli)	MIC Escherichia coli K-1 (Escherichia coli)	MIC Escherichia coli K-2 (Escherichia coli)	MIC Escherichia coli K-3 (Escherichia coli)	MIC Proteus vulgaris (Proteus vulgaris)	MIC Salmonella typhi-murium SL 2136 (Salmonella typhi-murium)	MIC Proteus morganii (Proteus morganii)	MIC Proteus vulgaris 3027 (Proteus vulgaris 3027)	MIC Esche--richin coil NIHJ (Escherichia coli NIHJ)	Relative activity (%), resistant activity against β-lactamase [3]	MIC Shigella sonnei JS 11232 (Shigella sonnei)	MIC Shigella sonnei JS 11755 (Shigella sonnei)	MIC Shigella flexneri JS 11215 (Shigella flexneri)	MIC Shigella flexneri JS 11839 (Shigella flexneri)	MIC Proteus mirabilis (Proteus mirabilis)	MIC Staphylococcus aureus F-2 (Staphylococcus aureus)	MIC Staphylococcus aureus F-5 (Staphylococcus aureus)	MIC Klebsiella pneumoniae GN 917 (Klebsiella pneumoniae [4])	further results
CCCN1CCN(C(=O)NC(C(=O)NC2C(=O)N3C2SC(C)(C)C3C(=O)O)c2ccccc2)C(=O)C1=O (single isomer, unassigned) [Compound 38]	3.13 µg/mL (≈ 5.89 µM)	3.13 µg/mL (≈ 5.89 µM)	> 200 µg/mL	3.13 µg/mL (≈ 5.89 µM)	3.13 µg/mL (≈ 5.89 µM)	> 200 µg/mL	< 0.4 µg/mL	200 µg/mL (≈ 376 µM)	< 0.4 µg/mL	0.4 µg/mL (≈ 0.752 µM)	< 0.1 µg/mL	15%	50 µg/mL (≈ 94.1 µM)	3.13 µg/mL (≈ 5.89 µM)	25 µg/mL (≈ 47 µM)	1.57 µg/mL (≈ 2.95 µM)	< 0.4 µg/mL	1.57 µg/mL (≈ 2.95 µM)	> 200 µg/mL	3.13 µg/mL (≈ 5.89 µM)	MIC Escherichia coli GN 3465 (Escherichia coli): 50 µg/mL (≈ 94.1 µM); MIC Pseudomonas aeruginosa GN 82 (Pseudomonas aeruginosa; Table 5-3, clinical isolate): 3.13 µg/mL (≈ 5.89 µM); MIC Pseudomonas aeruginosa GN 163 (Pseudomonas aeruginosa; Table 5-3, clinical isolate): 3.13 µg/mL (≈ 5.89 µM); MIC Pseudomonas aeruginosa GN 376 (Pseudomonas aeruginosa; Table 5-3, clinical isolate): 3.13 µg/mL (≈ 5.89 µM); MIC Pseudomonas aeruginosa GN 1091 (Pseudomonas aeruginosa; Table 5-3, clinical isolate): 3.13 µg/mL (≈ 5.89 µM); MIC Klebsiella pneumoniae (Klebsiella pneumoniae [1]): 3.13 µg/mL (≈ 5.89 µM); MIC Staphylococcus aureus 209p [2]: 0.4 µg/mL (≈ 0.752 µM); MIC Staphylococcus aureus MS 8588 (Staphylococcus aureus): 3.13 µg/mL (≈ 5.89 µM); MIC Staphylococcus aureus MS 8596 (Staphylococcus aureus): 3.13 µg/mL (≈ 5.89 µM); MIC Staphylococcus aureus MS 8684 (Staphylococcus aureus): 3.13 µg/mL (≈ 5.89 µM); MIC Klebsiella pneumoniae GN 4081 (Klebsiella pneumoniae [4]): 50 µg/mL (≈ 94.1 µM); MIC Klebsiella pneumoniae GN 4117 (Klebsiella pneumoniae [4]): 50 µg/mL (≈ 94.1 µM)
CCCCN1CCN(C(=O)NC(C(=O)NC2C(=O)N3C2SC(C)(C)C3C(=O)O)c2ccccc2)C(=O)C1=O (single isomer, unassigned) [Compound 39]	–	1.57 µg/mL (≈ 2.88 µM)	> 200 µg/mL	1.57 µg/mL (≈ 2.88 µM)	1.57 µg/mL (≈ 2.88 µM)	> 200 µg/mL	< 0.4 µg/mL	100 µg/mL (≈ 183 µM)	< 0.4 µg/mL	0.4 µg/mL (≈ 0.733 µM)	< 0.1 µg/mL	15%	25 µg/mL (≈ 45.8 µM)	1.57 µg/mL (≈ 2.88 µM)	25 µg/mL (≈ 45.8 µM)	0.79 µg/mL (≈ 1.45 µM)	< 0.4 µg/mL	1.57 µg/mL (≈ 2.88 µM)	> 200 µg/mL	1.57 µg/mL (≈ 2.88 µM)	MIC Klebsiella pneumoniae (Klebsiella pneumoniae [1]): 1.57 µg/mL (≈ 2.88 µM); MIC Staphylococcus aureus 209p [2]: 0.4 µg/mL (≈ 0.733 µM); MIC Staphylococcus aureus F-3 (Staphylococcus aureus): 1.57 µg/mL (≈ 2.88 µM); MIC Staphylococcus aureus MS 8588 (Staphylococcus aureus): 1.57 µg/mL (≈ 2.88 µM); MIC Staphylococcus aureus MS 8596 (Staphylococcus aureus): 1.57 µg/mL (≈ 2.88 µM)
CCCCCN1CCN(C(=O)NC(C(=O)NC2C(=O)N3C2SC(C)(C)C3C(=O)O)c2ccccc2)C(=O)C1=O (single isomer, unassigned) [Compound 45]	1.57 µg/mL (≈ 2.81 µM)	1.57 µg/mL (≈ 2.81 µM)	> 200 µg/mL	–	1.57 µg/mL (≈ 2.81 µM)	200 µg/mL (≈ 357 µM)	< 0.4 µg/mL	200 µg/mL (≈ 357 µM)	–	0.4 µg/mL (≈ 0.715 µM)	< 0.1 µg/mL	16%	25 µg/mL (≈ 44.7 µM)	1.57 µg/mL (≈ 2.81 µM)	25 µg/mL (≈ 44.7 µM)	1.57 µg/mL (≈ 2.81 µM)	< 0.4 µg/mL	1.57 µg/mL (≈ 2.81 µM)	> 200 µg/mL	1.57 µg/mL (≈ 2.81 µM)	MIC Pseudomonas aeruginosa GN 1035 (Pseudomonas aeruginosa; Table 5-3, clinical isolate): 50 µg/mL (≈ 89.3 µM); MIC Pseudomonas neruginosa S-3 (Pseudomonas aeruginosa; Table 5-4, clinical isolate): 50 µg/mL (≈ 89.3 µM); MIC Staphylococcus aureus F-3 (Staphylococcus aureus): 1.57 µg/mL (≈ 2.81 µM)
